“And” between values parts separate entries of the source, which are not always exact repeats. Identical values can stand only once.
Experiments:
Format in all cases: cell-based
SCD1 = molecular target: T1, SCD1 (Homo sapiens, UniProt O00767); test: Growth inhibition of humanized yeast strain expressing SCD1 as sole desaturase; settings: humanized yeast strain expressing SCD1
T1 construct: host or cells: S. cerevisiae ole1Δ strain (W303 pdr1Δ pdr3Δ background), plasmid pRS316 with TDH3 promoter and CYC1 terminator
T1 sequence (O00767 1-359): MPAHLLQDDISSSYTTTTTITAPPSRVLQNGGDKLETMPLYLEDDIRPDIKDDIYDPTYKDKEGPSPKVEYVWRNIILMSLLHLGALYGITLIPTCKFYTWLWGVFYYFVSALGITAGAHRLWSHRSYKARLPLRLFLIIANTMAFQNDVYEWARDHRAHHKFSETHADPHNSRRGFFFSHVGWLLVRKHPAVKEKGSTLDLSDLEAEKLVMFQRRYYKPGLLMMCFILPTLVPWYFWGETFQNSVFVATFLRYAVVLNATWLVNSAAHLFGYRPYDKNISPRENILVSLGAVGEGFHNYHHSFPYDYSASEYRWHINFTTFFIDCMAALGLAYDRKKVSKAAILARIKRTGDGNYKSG
Procedure, shortened: (§1)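 Measured by optical density at 600 nm, growth of desaturase-dependent yeast (OLE1 deleted; human SCD1, human SCD5 or yeast Ole1 supplied from plasmid) was scored after 24 h (Ole1) or 40 h (SCD1, SCD5) at 30° C. in galactose media lacking uracil with DMSO-delivered compound.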

SCD5 = molecular target: T2, SCD5 (Homo sapiens, UniProt Q86SK9); test: Growth inhibition of humanized yeast strain expressing SCD5 as sole desaturase; settings: humanized yeast strain expressing SCD5
T2 construct: host or cells: S. cerevisiae ole1Δ strain (W303 pdr1Δ pdr3Δ background), plasmid pRS316 with TDH3 promoter and CYC1 terminator
T2 sequence (Q86SK9 1-330): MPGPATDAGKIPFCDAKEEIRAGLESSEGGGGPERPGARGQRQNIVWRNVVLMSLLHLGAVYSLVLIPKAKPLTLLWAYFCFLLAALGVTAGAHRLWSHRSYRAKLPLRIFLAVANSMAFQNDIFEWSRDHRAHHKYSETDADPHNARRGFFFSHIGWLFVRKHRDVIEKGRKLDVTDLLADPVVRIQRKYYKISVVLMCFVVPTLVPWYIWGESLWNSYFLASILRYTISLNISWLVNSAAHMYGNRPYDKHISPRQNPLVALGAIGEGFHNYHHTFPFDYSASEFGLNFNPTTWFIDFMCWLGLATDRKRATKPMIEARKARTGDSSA
Procedure, shortened: as §1

Ole1 = molecular target: T3, Ole1 (Saccharomyces cerevisiae, UniProt P21147); test: Growth inhibition of yeast strain expressing Ole1 as sole desaturase; settings: yeast strain expressing Ole1 as sole desaturase
T3 construct: expressed in transfected cells; host or cells: S. cerevisiae ole1Δ strain (W303 pdr1Δ pdr3Δ background), plasmid pRS316 with TDH3 promoter and CYC1 terminator
T3 sequence (P21147 1-510): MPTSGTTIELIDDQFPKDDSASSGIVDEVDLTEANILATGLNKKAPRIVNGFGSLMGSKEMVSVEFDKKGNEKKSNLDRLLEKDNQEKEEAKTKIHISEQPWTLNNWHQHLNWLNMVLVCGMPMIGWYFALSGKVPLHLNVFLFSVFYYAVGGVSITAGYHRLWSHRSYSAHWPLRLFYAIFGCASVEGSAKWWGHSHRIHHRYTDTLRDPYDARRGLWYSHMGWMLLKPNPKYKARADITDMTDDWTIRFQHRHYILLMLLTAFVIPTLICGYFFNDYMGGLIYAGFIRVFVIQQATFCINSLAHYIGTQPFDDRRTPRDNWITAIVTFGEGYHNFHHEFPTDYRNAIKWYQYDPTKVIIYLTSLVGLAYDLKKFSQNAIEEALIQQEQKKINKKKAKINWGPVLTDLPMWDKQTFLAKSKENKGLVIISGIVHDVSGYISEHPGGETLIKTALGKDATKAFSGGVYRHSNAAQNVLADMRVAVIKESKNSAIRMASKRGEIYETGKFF
Protocol: Strain oleΔ (yeast ole1 deletion mutant) was constructed by deleting OLE1 with NAT-MX6 in BY4741, amplifying the deletion cassette from the genomic DNA of the resulting strain with primers flanking the ORF by 1000 bp upstream and downstream, transforming the resulting deletion cassette into W303 pdr1Δ pdr3Δ, and plating transformants on YPD media containing G418 (200 μg/mL) and nourseothricin ([…]) with 0.01% TWEEN®-20 and 0.5 mM oleic and palmitoleic acids.
The coding sequence of yeast OLE1 was also cloned into this plasmid). These clones were then transformed into the ole1Δ strain and plated on CSM-Ura media (CSM lacking uracil) with 2% glucose (w/v) and independent colonies were isolated and amplified.
All compound profiling experiments were performed using the same basic protocol. Different genetic backgrounds (e.g., gene deletions) or conditions (e.g., addition of oleic and palmitoleic acid) were replaced as indicated below.
Yeast were cultured using standard techniques in complete synthetic media (CSM) and yeast nitrogen base supplemented with 2% (w/v) carbon source (glucose, raffinose, or galactose) to regulate the expression of the toxic disease protein. An initial starter culture was inoculated in 3 mL CSM-Glucose media and incubated overnight in a 30° C. shaker incubator (225 rpm). Saturated morning cultures were then diluted 1:20 in fresh CSM-Raffinose media and grown for 6 h to an OD600 (optical density) of ˜0.4-0.8 at 30° C. with shaking.
Compound administration was performed in two separate steps. First, 15 μL of CSM-Galactose (induces expression of toxic protein) was dispensed into clear 384 well assay plates using a MULTIDROP™ Combi reagent dispenser. […] The cultures described above were then diluted to a 2× concentration (0.03 and 0.08 for alpha-synuclein and ApoE, final ODsoo of 0.015 and 0.04) in CSM-Galactose. For wild-type and Ole1/SCD1/SCD5 plasmid-containing strains, the 2× cell density was 0.02. […] For 96-well assays (FIGS. 1A and 1B), compound dilutions in DMSO were generated in 96 well plates and 1 μL was manually pipetted into 96 well clear bottom assay plates.
For experiments using a plasmid-borne copy of Ole1, SCD1, or SCD5 (FIGS. 3B, 6, and 7), media lacking uracil (SX-Ura, where X is glucose, raffinose, or galactose), was used for all steps of the compound profiling protocol to ensure its maintenance throughout the assay.
After yeast delivery, assay plates were incubated under humidified conditions at 30° C. for 24 to 40 h. ApoE4 rescue experiments were stopped at 24 h, aSyn experiments at 40 h, Ole1 at 24 h, and SCD1/SCD5 at 40 h. The growth of yeast was monitored by reading the ODsoo of each well using a microplate reader (Perkin Elmer EnVision™).

## CC(C)n1cc2ccc(-c3noc(C4CCN(C(=O)C5CC(=O)N(c6ccccc6)C5)CC4)n3)cc2n1 (stereo not drawn) [Compound 180]
SCD1
  IC50: > 45 µM
  SCD1 % Max Inhibition: 102.85%
SCD5
  IC50: > 45 µM
  SCD5 % Max Inhibition: 82.28%
Ole1
  IC50: > 45 µM
  OLE1 % Max Inhibition: 107.78%

## CC(C)n1cc2ccc(-c3noc(C4CCN(C(=O)CNC(=O)c5ccccc5)CC4)n3)cc2n1 [Compound 181]
SCD1
  IC50: > 45 µM
  SCD1 % Max Inhibition: 88.32%
SCD5
  IC50: > 45 µM
  SCD5 % Max Inhibition: 81.40%
Ole1
  IC50: > 45 µM
  OLE1 % Max Inhibition: 20.70%

## O=C(CN1Cc2ccccc2C1=O)N1CCC(c2nc(-c3ccc4nonc4c3)no2)CC1 [Compound 182]
SCD1
  IC50: > 45 µM
  SCD1 % Max Inhibition: 113.27%
SCD5
  IC50: > 45 µM
  SCD5 % Max Inhibition: 79.82%
Ole1
  IC50: > 45 µM
  OLE1 % Max Inhibition: 124.27%

## Cc1cc(N2CC(C(=O)N3CCC(c4nc(-c5ccc6c(C)nn(C)c6c5)no4)CC3)CC2=O)ccn1 (stereo not drawn) [Compound 183]
SCD1
  IC50: > 45 µM
  SCD1 % Max Inhibition: 101.67%
SCD5
  IC50: > 45 µM
  SCD5 % Max Inhibition: 84.88%
Ole1
  IC50: > 45 µM
  OLE1 % Max Inhibition: 101.71%

## Cc1ccc(N2CC(C(=O)N3CCC(c4nc(-c5ccc6c(C)nn(C)c6c5)no4)CC3)CC2=O)nc1 (stereo not drawn) [Compound 184]
SCD1
  IC50: > 45 µM
  SCD1 % Max Inhibition: 86.33% and 50.65%
SCD5
  IC50: > 45 µM
  SCD5 % Max Inhibition: 2.41% and 11.92%
Ole1
  IC50: > 45 µM
  OLE1 % Max Inhibition: 3.07% and 0.87%

## COc1ccc(-c2noc(C3CCN(C(=O)[C@@H](CO)NC(=O)c4ccccc4)CC3)n2)cc1OC [Compound 185]
SCD1
  IC50: > 45 µM
  SCD1 % Max Inhibition: 97.91%
SCD5
  IC50: > 45 µM
  SCD5 % Max Inhibition: 72.91%
Ole1
  IC50: > 45 µM
  OLE1 % Max Inhibition: 93.51%

## Cc1nn(C)c2cc(-c3noc(C4CCN(C(=O)[C@@H](CO)NC(=O)c5ccccc5)CC4)n3)ccc12 [Compound 186]
SCD1
  IC50: > 45 µM
  SCD1 % Max Inhibition: 86.16%
SCD5
  IC50: 30 µM
  SCD5 % Max Inhibition: 73.51%
Ole1
  IC50: > 45 µM
  OLE1 % Max Inhibition: 35.40%

## COc1cc(OC)cc(-c2noc(C3CCN(C(=O)CNC(=O)c4ccccc4)CC3)n2)c1 [Compound 187]
SCD1
  IC50: > 45 µM
  SCD1 % Max Inhibition: 72.13%
SCD5
  IC50: > 45 µM
  SCD5 % Max Inhibition: 2.91%
Ole1
  IC50: > 45 µM
  OLE1 % Max Inhibition: 97.42%

## Cc1nn(C)c2cc(-c3noc(C4CCN(C(=O)C5CC(=O)N(c6ccc(F)cc6)C5)CC4)n3)ccc12 (stereo not drawn) [Compound 188]
SCD1
  IC50: > 45 µM
  SCD1 % Max Inhibition: 78.63%
SCD5
  IC50: > 45 µM
  SCD5 % Max Inhibition: 4.51%
Ole1
  IC50: > 45 µM
  OLE1 % Max Inhibition: 4.70%

## CC(C)(CO)n1ncc2ccc(-c3noc(C4CCN(C(=O)CNC(=O)c5ccccc5)CC4)n3)cc21 [Compound 189]
SCD1
  IC50: > 45 µM
  SCD1 % Max Inhibition: 88.10%
SCD5
  IC50: > 45 µM
  SCD5 % Max Inhibition: 68.58%
Ole1
  IC50: > 45 µM
  OLE1 % Max Inhibition: 98.14%

## COc1ccc(-c2noc(C3CCN(C(=O)[C@H](NC(=O)c4ccccc4)C4CC4)CC3)n2)cc1OC [Compound 190]
SCD1
  IC50: > 45 µM
  SCD1 % Max Inhibition: 83.53%
SCD5
  IC50: > 45 µM
  SCD5 % Max Inhibition: 19.31%
Ole1
  IC50: > 45 µM
  OLE1 % Max Inhibition: 100.94%

## Cc1nn(C)c2cc(-c3noc(C4CCN(C(=O)[C@H](NC(=O)c5ccccc5)C5CC5)CC4)n3)ccc12 [Compound 191]
SCD1
  IC50: > 45 µM
  SCD1 % Max Inhibition: 81.79%
SCD5
  IC50: > 45 µM
  SCD5 % Max Inhibition: 6.72%
Ole1
  IC50: > 45 µM
  OLE1 % Max Inhibition: 89.31%

## CCOC(=O)C(C)(C)n1cc2ccc(-c3noc(C4CCN(C(=O)C5CC(=O)N(c6ccccc6)C5)CC4)n3)cc2n1 (stereo not drawn) [Compound 193]
SCD1
  IC50: > 45 µM
  SCD1 % Max Inhibition: 80.72%
SCD5
  IC50: > 45 µM
  SCD5 % Max Inhibition: 85.76%
Ole1
  IC50: > 45 µM
  OLE1 % Max Inhibition: 89.35%

## CCOC(=O)C(C)(C)n1cc2ccc(-c3noc(C4CCN(C(=O)CNC(=O)c5ccccc5)CC4)n3)cc2n1 [Compound 194]
SCD1
  IC50: > 45 µM
  SCD1 % Max Inhibition: 74.07%
SCD5
  IC50: > 45 µM
  SCD5 % Max Inhibition: 63.24%
Ole1
  IC50: > 45 µM
  OLE1 % Max Inhibition: 60.71%

## Cc1nn(C)c2cc(-c3noc(C4CCN(C(=O)C5CC(=O)N(c6ccccn6)C5)CC4)n3)ccc12 (stereo not drawn) [Compound 195]
SCD1
  IC50: > 45 µM
  SCD1 % Max Inhibition: 75.08%
SCD5
  IC50: > 45 µM
  SCD5 % Max Inhibition: 9.78%
Ole1
  IC50: > 45 µM
  OLE1 % Max Inhibition: 3.86%

## CCOC(=O)C(C)(C)n1ncc2ccc(-c3noc(C4CCN(C(=O)C5CC(=O)N(c6ccccc6)C5)CC4)n3)cc21 (stereo not drawn) [Compound 196]
SCD1
  IC50: > 45 µM
  SCD1 % Max Inhibition: 86.58%
SCD5
  IC50: > 45 µM
  SCD5 % Max Inhibition: 75.88%
Ole1
  IC50: > 45 µM
  OLE1 % Max Inhibition: 93.87%

## Cc1nn(C)c2cc(-c3noc(C4CCN(C(=O)CNC(=O)c5cccnc5)CC4)n3)ccc12 [Compound 197]
SCD1
  IC50: > 45 µM
  SCD1 % Max Inhibition: 66.87%
SCD5
  IC50: > 45 µM
  SCD5 % Max Inhibition: 61.44%
Ole1
  IC50: > 45 µM
  OLE1 % Max Inhibition: 4.80%

## Cc1nn(C)c2cc(-c3noc(C4CCN(C(=O)CNC(=O)c5ccncc5)CC4)n3)ccc12 [Compound 198]
SCD1
  IC50: > 45 µM
  SCD1 % Max Inhibition: 71.25%
SCD5
  IC50: > 45 µM
  SCD5 % Max Inhibition: 36.45%
Ole1
  IC50: > 45 µM
  OLE1 % Max Inhibition: 2.96%

## CCOc1cc(-c2noc(C3CCN(C(=O)CNC(=O)c4ccccc4)CC3)n2)ccc1OC [Compound 199]
SCD1
  IC50: > 45 µM
  SCD1 % Max Inhibition: 27.85%
SCD5
  IC50: > 45 µM
  SCD5 % Max Inhibition: 3.87%
Ole1
  IC50: > 45 µM
  OLE1 % Max Inhibition: 24.34%

Reference: US11873298B2, “Compounds and uses thereof” (JANSSEN PHARMACEUTICA NV, priority 2017, dated 2024)
